Target: T1, APOL1 (Homo sapiens, UniProt O14791)
T1 sequence (O14791 1-398 S342G/I384M): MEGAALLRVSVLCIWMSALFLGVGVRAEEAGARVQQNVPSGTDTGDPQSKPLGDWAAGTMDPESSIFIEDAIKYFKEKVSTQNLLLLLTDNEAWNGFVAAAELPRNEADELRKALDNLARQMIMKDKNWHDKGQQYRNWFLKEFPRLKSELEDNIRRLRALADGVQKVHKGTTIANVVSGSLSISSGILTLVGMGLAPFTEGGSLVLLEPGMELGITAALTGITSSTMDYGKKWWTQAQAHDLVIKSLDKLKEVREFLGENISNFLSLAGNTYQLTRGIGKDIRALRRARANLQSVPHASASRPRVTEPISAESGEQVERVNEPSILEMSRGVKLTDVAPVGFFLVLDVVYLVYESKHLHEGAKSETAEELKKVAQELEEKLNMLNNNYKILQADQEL
Assay: MultiTox-Fluor Multiplex Cytotoxicity Assay in tet-inducible APOL1 T-REx-HEK293 cells (cell rescue, ratio of dead to live cells)
Type: cell-based
Details: tet-inducible transgenic APOL1 T-REx-HEK293 cell lines, 50 ng/mL tet, 24 hours; read-out: IP50 (i.e., IC50 for cell proliferation)
Procedure, shortened: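 T-REx-HEK293 cells with tet-inducible APOL1 were treated with compound (10 μM top, 10-point 3-fold dilution, duplicate) plus 50 ng/mL tetracycline for 24 h at 37° C, in DMEM with 2% tet-free FBS. MultiTox-Fluor protease signals gave a dead/live ratio, normalized to no tet (100% viability) and tet alone (0%).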

Row | Structure (SMILES) | IC50
1 | CCc1cc2c(s1)CCO[C@@]21CCN(Cc2cnc(N[C@@H](C)C(C)(C)O)nc2)[C@@H](C)C1 [Compound 213] | < 100 nM
2 | CCc1cc2c(s1)CCO[C@@]21CCN(Cc2ccc(N[C@@H](CO)[C@@H](C)O)nc2)[C@@H](C)C1 [Compound 214] | < 100 nM
3 | CCc1cc2c(s1)CCO[C@@]21CCN(Cc2cnc(OCC3(N)CCOC3)nc2)[C@@H](C)C1 (stereo partly shown) [Compound 215] | < 100 nM
4 | CCc1cc2c(s1)CCOC21CCN(Cc2ccc(NC3CN(S(C)(=O)=O)C3)nc2)[C@@H](C)C1 (stereo partly shown) [Compound 216] | < 100 nM
5 | CCc1cc2c(s1)CCO[C@@]21CCN(Cc2cnc(NCC(O)CO)nc2)[C@@H](C)C1 (stereo partly shown) [Compound 217] | < 100 nM
6 | CCc1cc2c(s1)CCO[C@@]21CCN(Cc2cnc(NC3CNC(=O)C3)nc2)[C@@H](C)C1 (stereo partly shown) [Compound 218] | < 100 nM
7 | CCc1cc2c(s1)CCO[C@@]21CCN(Cc2cnc(N[C@H]3CCC[C@H]3CO)nc2)[C@@H](C)C1 [Compound 219] | < 100 nM
8 | CCc1cc2c(s1)CCO[C@@]21CCN(Cc2cnc(N[C@@H]3C(=O)NC[C@H]3O)nc2)[C@@H](C)C1 [Compound 220] | < 100 nM
9 | CCc1cc2c(s1)CCO[C@@]21CCN(Cc2cnc(NCCN3CCNC3=O)nc2)[C@@H](C)C1 [Compound 221] | < 100 nM
10 | CCc1cc2c(s1)CCO[C@@]21CCN(Cc2cnc(NC(CO)CO)nc2)[C@@H](C)C1 [Compound 222] | < 100 nM
11 | CCc1cc2c(s1)CCO[C@@]21CCN(Cc2cnc(N[C@@H]3CCCC[C@H]3O)nc2)[C@@H](C)C1 [Compound 223] | < 100 nM
12 | CCc1cc2c(s1)CCO[C@@]21CCN(Cc2cnc(NC(C)(CC)CO)nc2)[C@@H](C)C1 (stereo partly shown) [Compound 224] | < 100 nM
13 | CCc1cc2c(s1)CCO[C@@]21CCN(Cc2cnc(N[C@@H](C)C(=O)NC)nc2)[C@@H](C)C1 [Compound 225] | < 100 nM
14 | CCc1cc2c(s1)CCO[C@@]21CCN(Cc2cnc(N[C@@H](CO)[C@H](C)O)nc2)[C@@H](C)C1 [Compound 226] | < 100 nM
15 | CCc1cc2c(s1)CCO[C@@]21CCN(Cc2cnc(OCC3(N)CCCCC3)nc2)[C@@H](C)C1 [Compound 227] | < 100 nM
16 | CCc1cc2c(s1)CCO[C@@]21CCN(Cc2ccc(NC(C)(C)CO)nc2)[C@@H](C)C1 [Compound 228] | < 100 nM
17 | CCc1cc2c(s1)CCO[C@@]21CCN(Cc2cnc(N[C@@H](CO)[C@@H](C)O)nc2)[C@@H](C)C1 [Compound 229] | < 100 nM
18 | CCc1cc2c(s1)CCO[C@@]21CCN(Cc2cnc(NCCN(CCO)CCO)nc2)[C@@H](C)C1 [Compound 230] | < 100 nM
19 | CCc1cc2c(s1)CCO[C@@]21CCN(Cc2cnc(NCC(O)C(F)(F)F)nc2)[C@@H](C)C1 (stereo partly shown) [Compound 231] | 100 to 500 nM
20 | CCc1cc2c(s1)CCO[C@@]21CCN(C2COCC2O)[C@@H](C)C1 (stereo partly drawn) [Compound 232, 4-[(2′S,4R)-2-ethyl-2′-methyl-spiro[6,7-dihydrothieno[3,2-c]pyran-4,4′-piperidine]-1′-yl]tetrahydrofuran-3-ol] | < 100 nM
21 | CCc1cc2c(s1)CCO[C@@]21CCN(C2COCC2O)[C@@H](C)C1 (stereo partly drawn) [Compound 233, 4-[(2′S,4R)-2-ethyl-2′-methyl-spiro[6,7-dihydrothieno[3,2-c]pyran-4,4′-piperidine]-1′-yl]tetrahydrofuran-3-ol] | 100 to 500 nM
22 | CCc1cc2c(s1)CCO[C@@]21CCN(C2CCCC2O)[C@@H](C)C1 (stereo partly shown) [Compound 234] | < 100 nM
23 | CCc1cc2c(s1)CCO[C@@]21CCN(CC2(O)CCOCC2)[C@@H](C)C1 [Compound 235] | 100 to 500 nM
24 | CCc1cc2c(s1)CCO[C@@]21CCN(CC(C)(C)O)[C@@H](C)C1 [Compound 236] | 100 to 500 nM
25 | CCc1cc2c(s1)CCO[C@@]21CCN(C[C@@H](C)O)[C@@H](C)C1 [Compound 237] | 100 to 500 nM
26 | CCc1cc2c(s1)CCO[C@@]21CCN(CC(O)CC(F)(F)F)[C@@H](C)C1 (stereo partly shown) [Compound 238] | 100 to 500 nM

Row | Structure (SMILES) | IC50
27 | CCc1cc2c(s1)CCO[C@@]21CCN(CCO)[C@@H](C)C1 [Compound 239] | 100 to 500 nM
28 | CCc1cc2c(s1)CCO[C@@]21CCN(CC(O)C(N)=O)[C@@H](C)C1 (stereo partly shown) [Compound 240] | 100 to 500 nM
29 | CCc1cc2c(s1)CCO[C@@]21CCN(CC(O)C(F)(F)F)[C@@H](C)C1 (stereo partly shown) [Compound 241] | 100 to 500 nM
30 | CCc1cc2c(s1)CCO[C@@]21CCN(CC(C)O)[C@@H](C)C1 (stereo partly shown) [Compound 242] | 100 to 500 nM
31 | CCc1cc2c(s1)CCO[C@@]21CCN(CC(O)C(F)(F)F)[C@@H](C)C1 (stereo partly shown) [Compound 243] | 100 to 500 nM
32 | CCc1cc2c(s1)CCO[C@@]21CCN(CC(O)CC(F)(F)F)[C@@H](C)C1 (stereo partly shown) [Compound 244] | 100 to 500 nM
33 | CCc1cc2c(s1)CCO[C@@]21CCN(C2CCCC2O)[C@@H](C)C1 (stereo partly shown) [Compound 245] | 100 to 500 nM
34 | CCc1cc2c(s1)CCO[C@@]21CCN(C[C@H](O)c2ccccc2)[C@@H](C)C1 [Compound 246] | < 100 nM
35 | CCc1cc2c(s1)CCO[C@@]21CCN(CC(O)c2ccc(F)cc2)[C@@H](C)C1 (stereo partly shown) [Compound 249] | < 100 nM
36 | CCc1cc2c(s1)CCO[C@@]21CCN(CC(O)c2ccc(F)c(F)c2)[C@@H](C)C1 (stereo partly shown) [Compound 253] | 100 to 500 nM
37 | CCc1cc2c(s1)CCO[C@@]21CCN(CC(O)c2ccccc2Cl)[C@@H](C)C1 (stereo partly shown) [Compound 254] | < 100 nM
38 | CCc1cc2c(s1)CCO[C@@]21CCN(CC2(O)CCS(=O)(=O)CC2)[C@@H](C)C1 [Compound 257] | 100 to 500 nM
39 | CCc1cc2c(s1)CCO[C@@]21CCN(Cc2cnn(CCS(=O)(=O)NC)c2)[C@@H](C)C1 [Compound 264, 2-[4-[[(2′S,4R)-2-ethyl-2′-methyl-spiro[6,7-dihydrothieno[3,2-c]pyran-4,4′-piperidine]-1′-yl]methyl]pyrazol-1-yl]-N-methyl-ethanesulfonamide] | < 100 nM
40 | CCc1cc2c(s1)CCO[C@@]21CCN(Cc2cn[nH]c2)[C@@H](C)C1 [Compound 265] | < 100 nM
41 | CCc1cc2c(s1)CCO[C@@]21CCN(Cc2cnn(CC(C)(CO)CO)c2)[C@@H](C)C1 [Compound 266] | < 100 nM
42 | CCc1cc2c(s1)CCO[C@@]21CCN(Cc2cnn(C)c2)[C@@H](C)C1 [Compound 267] | < 100 nM
43 | CCc1cc2c(s1)CCO[C@@]21CCN(Cc2cnn(CCS(C)(=O)=O)c2)[C@@H](C)C1 [Compound 268] | < 100 nM
44 | CCc1cc2c(s1)CCO[C@@]21CCN(Cc2cnn(CCO)c2)[C@@H](C)C1 [Compound 269] | < 100 nM
45 | CCc1cc2c(s1)CCO[C@]21CCN(Cc2cnn(C)c2)[C@H](C)C1 [Compound 270] | 100 to 500 nM
46 | CCc1cc2c(s1)CCO[C@]21CCN(Cc2cnn(CCS(C)(=O)=O)c2)[C@@H](C)C1 [Compound 271] | < 100 nM
47 | CCc1cc2c(s1)CCO[C@@]21CCN(Cc2cnn(CCS(C)(=O)=O)c2)[C@H](C)C1 [Compound 272] | 100 to 500 nM
48 | CCc1cc2c(s1)CCO[C@]21CCN(Cc2cnn(CCS(C)(=O)=O)c2)[C@H](C)C1 [Compound 273] | 100 to 500 nM
49 | CCc1cc2c(s1)CCO[C@@]21CCN(Cc2ccc(NS(C)(=O)=O)cc2)[C@@H](C)C1 [Compound 274] | < 100 nM
50 | CCc1cc2c(s1)CCO[C@@]21CCN(CCC(F)(F)F)[C@@H](C)C1 [Compound 275] | 500 to 1000 nM
51 | CCc1cc2c(s1)CCO[C@@]21CCN(CC(C)C)[C@@H](C)C1 [Compound 276] | 500 to 1000 nM
52 | CCc1cc2c(s1)CCO[C@@]21CCN(C)[C@@H](C)C1 [Compound 277] | 500 to 1000 nM

— patent US20250171459A1, “2-METHYL-4',5'-DIHYDROSPIRO[PIPERIDINE-4,7'-THIENO[2,3-C]PYRAN] DERIVATIVES AS INHIBITORS OF APOL1 AND METHODS OF USING SAME” (Vertex Pharmaceuticals Incorporated, priority 2022, published 2025)
